The source of these data is ChEMBL document CHEMBL5303763, “Data for DCP probe BI-3802” (2023).

In assay [1] the target is Ribosomal protein S6 kinase alpha-3 (Homo sapiens) (UniProt P51812). As to the kind of experiment: RPS6KA3 Invitrogen Lab (UK) kinase screen (BI). The following applies: Compound concentration 1.0 uM.
Assay [2] deals with Mitogen-activated protein kinase 9 (Homo sapiens) (UniProt P45984). As to the kind of experiment: MAPK9 Invitrogen Lab (UK) kinase screen (BI). The following applies: Compound concentration 1.0 uM.
Assay [3] has as its target Mu-type opioid receptor (Homo sapiens) (UniProt P35372). The conditions noted are these: Compound concentration 10.0 uM.
Assay [4] concerns the target 5-hydroxytryptamine receptor 2C (Homo sapiens) (UniProt P28335). The conditions noted are these: Compound concentration 10.0 uM.
Assay [5] has as its target RAF proto-oncogene serine/threonine-protein kinase (Homo sapiens) (UniProt P04049). Description: RAF1 Invitrogen Lab (UK) kinase screen (BI). The conditions noted are these: Compound concentration 1.0 uM.
The target of assay [6] is RAC-beta serine/threonine-protein kinase (Homo sapiens) (UniProt P31751). Description: AKT2 Invitrogen Lab (UK) kinase screen (BI). The following applies: Compound concentration 1.0 uM.
In assay [7] the target is Leucine-rich repeat serine/threonine-protein kinase 2 (Homo sapiens) (UniProt Q5S007). Description: LRRK2 Invitrogen Lab (UK) kinase screen (BI). The conditions noted are these: Compound concentration 1.0 uM.
Assay [8] concerns the target Kappa-type opioid receptor (Homo sapiens) (UniProt P41145). The conditions noted are these: Compound concentration 10.0 uM.
Assay [9] concerns the target Dual specificity mitogen-activated protein kinase kinase 6 (Homo sapiens) (UniProt P52564). As to the kind of experiment: MAP2K6 Invitrogen Lab (UK) kinase screen (BI). The following applies: Compound concentration 1.0 uM.
Assay [10] deals with Histamine H4 receptor (Homo sapiens) (UniProt Q9H3N8). The following applies: Compound concentration 10.0 uM.
Assay [11] addresses Proto-oncogene tyrosine-protein kinase receptor Ret (Homo sapiens) (UniProt P07949). As to the kind of experiment: RET Invitrogen Lab (UK) kinase screen (BI). The conditions noted are these: Compound concentration 1.0 uM.
In assay [12] the target is Serine/threonine-protein kinase TBK1 (Homo sapiens) (UniProt Q9UHD2). As to the kind of experiment: TBK1 Invitrogen Lab (UK) kinase screen (BI). The conditions noted are these: Compound concentration 1.0 uM.
In assay [13] the target is Inhibitor of nuclear factor kappa-B kinase subunit beta (Homo sapiens) (UniProt O14920). Description: IKBKB Invitrogen Lab (UK) kinase screen (BI). The conditions noted are these: Compound concentration 1.0 uM.
Assay [14] concerns the target Serine/threonine-protein kinase Chk1 (Homo sapiens) (UniProt O14757). Description: CHEK1 Invitrogen Lab (UK) kinase screen (BI). The following applies: Compound concentration 1.0 uM.
The target of assay [15] is Histamine H2 receptor (Homo sapiens) (UniProt P25021). The following applies: Compound concentration 10.0 uM.
Assay [16] addresses GABA-A receptor; anion channel (Rattus norvegicus) (UniProt O09028+P15431+P18506+P18508+P19969+P20236+P23574+P23576+P28471+P28473+P30191+P62813+P63079+P63138+Q91ZM7+Q9ES14). The following applies: Compound concentration 10.0 uM.
In assay [17] the target is 5-hydroxytryptamine receptor 2A (Homo sapiens) (UniProt P28223). The following applies: Compound concentration 10.0 uM.
The target in assay [18] is Ribosomal protein S6 kinase alpha-4 (Homo sapiens) (UniProt O75676). As to the kind of experiment: RPS6KA4 Invitrogen Lab (UK) kinase screen (BI). The conditions noted are these: Compound concentration 1.0 uM.
For assay [19], the target named is D(2) dopamine receptor (Homo sapiens) (UniProt P14416). The conditions noted are these: Compound concentration 10.0 uM.
Assay [20] deals with Insulin receptor (Homo sapiens) (UniProt P06213). As to the kind of experiment: INSR Invitrogen Lab (UK) kinase screen (BI). The following applies: Compound concentration 1.0 uM.
The target in assay [21] is T1, Alpha-2A adrenergic receptor (Homo sapiens) (UniProt P08913).
T1 sequence (whole entry): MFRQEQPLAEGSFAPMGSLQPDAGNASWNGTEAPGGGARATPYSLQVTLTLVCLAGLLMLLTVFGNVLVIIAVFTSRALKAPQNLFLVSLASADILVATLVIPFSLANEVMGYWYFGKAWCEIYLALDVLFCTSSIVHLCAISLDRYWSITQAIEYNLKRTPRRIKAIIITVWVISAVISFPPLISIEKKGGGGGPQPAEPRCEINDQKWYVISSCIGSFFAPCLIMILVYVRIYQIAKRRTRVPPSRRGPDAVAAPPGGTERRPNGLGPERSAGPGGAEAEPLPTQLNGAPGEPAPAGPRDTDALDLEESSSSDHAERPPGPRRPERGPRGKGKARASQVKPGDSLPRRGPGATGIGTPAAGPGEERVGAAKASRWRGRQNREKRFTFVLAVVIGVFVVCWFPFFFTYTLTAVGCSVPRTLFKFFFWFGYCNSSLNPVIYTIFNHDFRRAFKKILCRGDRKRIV
The conditions noted are these: Compound concentration 10.0 uM.

For assay [22], the target named is Interleukin-1 receptor-associated kinase 4 (Homo sapiens) (UniProt Q9NWZ3). As to the kind of experiment: IRAK4 Invitrogen Lab (UK) kinase screen (BI). The conditions noted are these: Compound concentration 1.0 uM.
Assay [23] deals with D(1B) dopamine receptor (Homo sapiens) (UniProt P21918). The following applies: Compound concentration 10.0 uM.
The target in assay [24] is BDNF/NT-3 growth factors receptor (Homo sapiens) (UniProt Q16620). Description: NTRK2 Invitrogen Lab (UK) kinase screen (BI). The following applies: Compound concentration 1.0 uM.
Assay [25] deals with T2, 5-hydroxytryptamine receptor 3A (Homo sapiens) (UniProt P46098).
T2 sequence (whole entry): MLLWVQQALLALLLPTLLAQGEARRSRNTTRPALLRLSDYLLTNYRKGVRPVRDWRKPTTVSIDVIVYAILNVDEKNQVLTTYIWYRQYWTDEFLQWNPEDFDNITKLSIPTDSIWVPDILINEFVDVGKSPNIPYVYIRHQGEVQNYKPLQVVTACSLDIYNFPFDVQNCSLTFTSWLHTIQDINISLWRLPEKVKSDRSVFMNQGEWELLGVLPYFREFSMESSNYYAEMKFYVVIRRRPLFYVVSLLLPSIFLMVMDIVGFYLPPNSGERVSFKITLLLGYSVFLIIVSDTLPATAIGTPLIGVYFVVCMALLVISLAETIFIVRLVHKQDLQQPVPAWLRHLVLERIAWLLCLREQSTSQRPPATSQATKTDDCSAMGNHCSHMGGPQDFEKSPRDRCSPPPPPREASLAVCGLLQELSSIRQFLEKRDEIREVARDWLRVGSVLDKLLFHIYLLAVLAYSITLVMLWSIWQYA
The conditions noted are these: Compound concentration 10.0 uM.

In assay [26] the target is Serine/threonine-protein kinase Nek1 (Homo sapiens) (UniProt Q96PY6). As to the kind of experiment: NEK1 Invitrogen Lab (UK) kinase screen (BI). The following applies: Compound concentration 1.0 uM.
The target of assay [27] is Proto-oncogene tyrosine-protein kinase Src (Homo sapiens) (UniProt P12931). As to the kind of experiment: SRC Invitrogen Lab (UK) kinase screen (BI). The conditions noted are these: Compound concentration 1.0 uM.
The target in assay [28] is Alpha-2C adrenergic receptor (Homo sapiens) (UniProt P18825). The conditions noted are these: Compound concentration 10.0 uM.
Assay [29] addresses Kappa-type opioid receptor (Homo sapiens) (UniProt P41145). Description: KAPPA(KOP)_HU Eurofins SafetyScreen44 (BI). The conditions noted are these: Compound concentration 10.0 uM.
Assay [30] deals with Zinc finger and BTB domain-containing protein 32 (Homo sapiens, UniProt Q9Y2Y4). Description: SPR (ZBTB32), Ontario institute for cancer research.
Assay [31] deals with B-cell lymphoma 6 protein (Homo sapiens, UniProt P41182). As to the kind of experiment: SPR (BCL6), Ontario institute for cancer research.

Sequence of Kappa-type opioid receptor (Homo sapiens) (P41145 whole entry, the tested form may be a part): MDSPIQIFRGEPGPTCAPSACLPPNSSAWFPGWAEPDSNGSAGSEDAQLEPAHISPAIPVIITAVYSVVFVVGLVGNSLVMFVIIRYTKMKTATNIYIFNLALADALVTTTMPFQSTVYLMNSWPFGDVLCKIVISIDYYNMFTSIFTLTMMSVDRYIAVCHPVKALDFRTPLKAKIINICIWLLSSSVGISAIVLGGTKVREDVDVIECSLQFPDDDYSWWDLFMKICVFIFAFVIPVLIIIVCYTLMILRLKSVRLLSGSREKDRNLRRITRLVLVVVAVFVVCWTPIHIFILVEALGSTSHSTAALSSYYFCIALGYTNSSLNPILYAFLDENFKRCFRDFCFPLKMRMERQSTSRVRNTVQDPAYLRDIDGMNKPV
Sequence of 5-hydroxytryptamine receptor 2A (Homo sapiens) (P28223 whole entry): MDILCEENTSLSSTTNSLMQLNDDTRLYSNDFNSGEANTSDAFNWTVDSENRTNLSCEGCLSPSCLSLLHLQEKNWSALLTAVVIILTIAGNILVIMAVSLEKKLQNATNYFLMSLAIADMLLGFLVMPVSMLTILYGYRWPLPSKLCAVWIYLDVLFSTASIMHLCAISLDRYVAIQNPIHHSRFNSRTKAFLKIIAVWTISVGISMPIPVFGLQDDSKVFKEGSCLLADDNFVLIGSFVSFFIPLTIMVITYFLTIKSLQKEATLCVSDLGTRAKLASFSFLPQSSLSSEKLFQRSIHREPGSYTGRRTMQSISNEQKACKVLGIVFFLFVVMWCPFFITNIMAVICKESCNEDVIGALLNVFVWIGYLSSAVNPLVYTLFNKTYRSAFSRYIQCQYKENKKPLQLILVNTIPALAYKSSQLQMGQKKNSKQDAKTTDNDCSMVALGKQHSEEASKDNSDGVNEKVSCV
Sequence of Histamine H4 receptor (Homo sapiens) (Q9H3N8 whole entry): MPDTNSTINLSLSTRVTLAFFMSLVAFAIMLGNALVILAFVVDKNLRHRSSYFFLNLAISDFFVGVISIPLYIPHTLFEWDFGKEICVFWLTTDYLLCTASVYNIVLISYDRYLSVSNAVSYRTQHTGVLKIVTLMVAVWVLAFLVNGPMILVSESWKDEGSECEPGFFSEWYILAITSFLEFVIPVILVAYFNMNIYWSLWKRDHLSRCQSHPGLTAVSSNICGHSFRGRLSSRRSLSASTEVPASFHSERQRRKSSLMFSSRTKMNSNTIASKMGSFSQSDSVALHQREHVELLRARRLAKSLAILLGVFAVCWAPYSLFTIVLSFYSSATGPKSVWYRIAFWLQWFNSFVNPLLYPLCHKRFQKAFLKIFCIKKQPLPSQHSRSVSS
Sequence of D(2) dopamine receptor (Homo sapiens) (P14416 whole entry): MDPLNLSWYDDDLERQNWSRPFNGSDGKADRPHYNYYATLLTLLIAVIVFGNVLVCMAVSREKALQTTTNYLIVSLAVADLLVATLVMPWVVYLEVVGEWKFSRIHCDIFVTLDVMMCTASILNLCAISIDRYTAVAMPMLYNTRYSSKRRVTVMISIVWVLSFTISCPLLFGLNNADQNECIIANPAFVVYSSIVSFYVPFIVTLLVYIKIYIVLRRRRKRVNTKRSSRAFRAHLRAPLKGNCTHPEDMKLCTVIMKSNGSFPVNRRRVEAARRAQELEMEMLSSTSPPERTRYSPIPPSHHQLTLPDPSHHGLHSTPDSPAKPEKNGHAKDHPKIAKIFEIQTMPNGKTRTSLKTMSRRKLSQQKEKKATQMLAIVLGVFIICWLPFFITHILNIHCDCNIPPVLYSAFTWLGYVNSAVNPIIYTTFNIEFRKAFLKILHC
Sequence of D(1B) dopamine receptor (Homo sapiens) (P21918 whole entry): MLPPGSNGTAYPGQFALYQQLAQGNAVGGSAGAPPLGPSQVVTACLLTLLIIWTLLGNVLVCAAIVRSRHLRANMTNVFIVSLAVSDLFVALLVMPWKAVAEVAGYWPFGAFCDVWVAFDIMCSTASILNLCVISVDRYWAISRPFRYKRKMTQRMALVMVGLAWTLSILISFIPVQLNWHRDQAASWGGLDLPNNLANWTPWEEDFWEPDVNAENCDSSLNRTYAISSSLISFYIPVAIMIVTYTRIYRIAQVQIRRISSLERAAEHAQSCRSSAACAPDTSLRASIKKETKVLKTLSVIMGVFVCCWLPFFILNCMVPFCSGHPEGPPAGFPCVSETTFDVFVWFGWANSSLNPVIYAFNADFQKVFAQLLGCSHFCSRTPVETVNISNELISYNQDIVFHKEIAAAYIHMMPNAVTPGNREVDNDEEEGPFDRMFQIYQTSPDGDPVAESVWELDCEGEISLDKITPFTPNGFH
Sequence of 5-hydroxytryptamine receptor 2C (Homo sapiens) (P28335 whole entry): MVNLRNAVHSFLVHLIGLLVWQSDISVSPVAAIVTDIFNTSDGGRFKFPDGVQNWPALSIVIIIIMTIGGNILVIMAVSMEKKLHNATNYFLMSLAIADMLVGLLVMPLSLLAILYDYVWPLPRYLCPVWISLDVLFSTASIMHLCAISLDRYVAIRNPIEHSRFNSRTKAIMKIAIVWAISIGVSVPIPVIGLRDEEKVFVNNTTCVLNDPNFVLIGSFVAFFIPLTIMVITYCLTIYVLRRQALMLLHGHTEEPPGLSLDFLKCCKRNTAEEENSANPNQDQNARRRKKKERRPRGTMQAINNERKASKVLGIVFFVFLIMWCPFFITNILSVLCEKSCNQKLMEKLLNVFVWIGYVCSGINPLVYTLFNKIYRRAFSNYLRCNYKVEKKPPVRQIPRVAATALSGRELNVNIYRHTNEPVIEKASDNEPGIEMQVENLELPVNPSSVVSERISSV
Sequence of Alpha-2C adrenergic receptor (Homo sapiens) (P18825 whole entry): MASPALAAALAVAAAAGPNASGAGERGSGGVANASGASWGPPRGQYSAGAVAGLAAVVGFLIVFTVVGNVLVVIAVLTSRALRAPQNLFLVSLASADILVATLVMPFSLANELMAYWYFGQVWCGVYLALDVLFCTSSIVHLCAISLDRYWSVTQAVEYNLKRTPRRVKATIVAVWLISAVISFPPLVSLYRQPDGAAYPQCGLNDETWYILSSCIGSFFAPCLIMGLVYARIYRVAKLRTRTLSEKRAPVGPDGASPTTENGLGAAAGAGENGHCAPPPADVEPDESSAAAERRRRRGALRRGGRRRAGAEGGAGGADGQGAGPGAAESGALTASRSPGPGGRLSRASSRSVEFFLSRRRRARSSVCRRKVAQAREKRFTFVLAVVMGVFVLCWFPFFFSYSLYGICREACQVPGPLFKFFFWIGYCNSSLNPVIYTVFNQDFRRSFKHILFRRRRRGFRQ
Sequence of Histamine H2 receptor (Homo sapiens) (P25021 whole entry): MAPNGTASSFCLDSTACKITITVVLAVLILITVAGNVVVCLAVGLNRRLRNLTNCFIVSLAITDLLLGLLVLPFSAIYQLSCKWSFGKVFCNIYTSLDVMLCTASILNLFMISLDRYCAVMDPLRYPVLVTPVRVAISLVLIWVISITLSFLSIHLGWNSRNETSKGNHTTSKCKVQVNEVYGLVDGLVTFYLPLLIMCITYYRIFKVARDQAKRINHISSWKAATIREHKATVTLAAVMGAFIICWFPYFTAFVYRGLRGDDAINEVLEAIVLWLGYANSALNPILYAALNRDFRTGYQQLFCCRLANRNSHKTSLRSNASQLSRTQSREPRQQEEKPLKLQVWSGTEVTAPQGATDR
Sequence of Mu-type opioid receptor (Homo sapiens) (P35372 whole entry): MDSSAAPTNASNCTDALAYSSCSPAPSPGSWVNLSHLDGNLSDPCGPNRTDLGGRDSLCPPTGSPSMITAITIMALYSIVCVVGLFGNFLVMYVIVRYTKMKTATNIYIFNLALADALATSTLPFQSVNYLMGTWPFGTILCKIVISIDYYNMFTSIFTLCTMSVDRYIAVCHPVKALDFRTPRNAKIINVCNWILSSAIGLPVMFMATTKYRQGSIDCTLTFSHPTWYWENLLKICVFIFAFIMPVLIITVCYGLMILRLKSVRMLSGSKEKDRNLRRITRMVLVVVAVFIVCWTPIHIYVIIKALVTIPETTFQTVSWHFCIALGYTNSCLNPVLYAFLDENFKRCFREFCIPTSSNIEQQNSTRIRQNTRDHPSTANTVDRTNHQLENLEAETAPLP
Sequence of Ribosomal protein S6 kinase alpha-3 (Homo sapiens) (P51812 whole entry): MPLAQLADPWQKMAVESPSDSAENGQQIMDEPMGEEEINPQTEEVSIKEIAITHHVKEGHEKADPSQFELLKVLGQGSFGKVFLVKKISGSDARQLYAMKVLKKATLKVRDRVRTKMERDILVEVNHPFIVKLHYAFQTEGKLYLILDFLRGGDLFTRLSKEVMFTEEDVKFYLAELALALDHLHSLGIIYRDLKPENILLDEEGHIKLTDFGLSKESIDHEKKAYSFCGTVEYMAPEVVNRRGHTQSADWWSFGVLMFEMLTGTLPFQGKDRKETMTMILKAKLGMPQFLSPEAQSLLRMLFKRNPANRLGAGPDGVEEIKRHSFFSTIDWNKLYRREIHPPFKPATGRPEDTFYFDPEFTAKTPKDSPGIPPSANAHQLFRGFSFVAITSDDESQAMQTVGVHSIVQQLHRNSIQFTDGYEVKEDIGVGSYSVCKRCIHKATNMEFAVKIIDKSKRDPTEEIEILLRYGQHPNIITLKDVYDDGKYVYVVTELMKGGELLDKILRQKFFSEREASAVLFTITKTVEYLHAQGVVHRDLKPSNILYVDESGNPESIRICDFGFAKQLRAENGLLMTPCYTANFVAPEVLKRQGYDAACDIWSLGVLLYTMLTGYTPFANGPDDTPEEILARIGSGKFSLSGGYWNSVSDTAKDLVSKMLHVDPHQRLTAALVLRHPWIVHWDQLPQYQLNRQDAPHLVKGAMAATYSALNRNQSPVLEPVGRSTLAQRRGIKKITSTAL
Sequence of Dual specificity mitogen-activated protein kinase kinase 6 (Homo sapiens) (P52564 whole entry): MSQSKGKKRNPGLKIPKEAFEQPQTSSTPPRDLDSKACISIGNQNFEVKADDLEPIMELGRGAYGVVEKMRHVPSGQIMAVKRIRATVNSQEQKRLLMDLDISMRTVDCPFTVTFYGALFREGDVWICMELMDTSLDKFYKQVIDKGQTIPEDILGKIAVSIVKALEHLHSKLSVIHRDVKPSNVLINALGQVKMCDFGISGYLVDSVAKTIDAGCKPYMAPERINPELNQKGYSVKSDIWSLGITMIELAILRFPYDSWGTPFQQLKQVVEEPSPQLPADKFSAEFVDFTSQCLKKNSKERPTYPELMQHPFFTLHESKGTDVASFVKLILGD

Usually inhibition stands for the drop in the measured response relative to a control, in per cent. On to `CNC(=O)COc1cc2cc(Nc3nc(N4C[C@H](C)C[C@H](C)C4)ncc3Cl)ccc2n(C)c1=O`, for which the residual activity was 89% in [1]; 110% in assay [2]; 94% in assay [5]; 96% in assay [6]; 78% in assay [7]; 84% in [9]. Moreover, the residual activity was 101% in assay [11]; 120% in [12]; 102% in assay [13]; 89% in [14]; 99% in [18]; 100% in [20]. In addition, the residual activity in assay [22] is 90%; in assay [24], 99%; in [26], 101%; in assay [27], 105%. Moreover, the inhibition was 24.5% in [3]; 0.15% in [4]; 33.5% in assay [8]; -0.56% in assay [10]; 13.9% in [15]; 20.9% in assay [16]. For the same molecule, the inhibition in assay [17] was -1.56%; in assay [19], -8.96%; in [21] it was 5.49%; in [23], 1.96%; in assay [25], 12.5%; in [28] it was 6.5%.

For orientation: Kd means the constant that tells how readily two partners part at equilibrium. Low readings indicate higher affinity, high ones lower affinity. On to `C[C@@H]1C[C@H](C)CN(c2ncc(Cl)c(Nc3ccc4c(c3)cc(OC(C)(C)C(=O)O)c(=O)n4C)n2)C1`, for which the residual activity in assay [29] is 86%. The figures for the Kd result in [30] and in [31] were “No binding” and 1.41 µM (not active), respectively.
